Patent publication US11529317B2, “Method of preparing silica nanocapsules and silica nanocapsules” (Agency for Science, Technology and Research, priority 2017, dated 2022)

Test: Timed release of glycerol in aqueous media, standard enzymatic assay
Type: physicochemical
Conditions: control
Method: In this example, timed release studies were conducted on the glycerol loaded silica nanocapsules in accordance with various embodiments disclosed herein. Firstly, the synthesized silica nano lens particles were loaded with glycerol. Then, they were suspended in aqueous media and compared with controls.
The percentage of glycerol released from the lens-shaped particles over a period of 80 minutes is estimated using standard enzymatic assay and the results are shown in FIG. 12. […] On the other hand, encapsulated glycerol is released gradually from the lens-shaped particles over a period of approximately two hours.

OCC(O)CO [unencapsulated glycerol, glycerol]
dissolution of glycerol in water: instantly dissolves
